Source: PubChem BioAssay AID1996
Values after ≈ are worked out from the molar mass of the structure shown.

Settings: buffer; pH 7.4; 200.0 µM

| SMILES | solubility kinetic [µg/mL] |
| --- | --- |
| O=S(=O)(Nc1cccc(-c2nc3cccnc3s2)c1)c1cccs1 | 0.9 (≈ 2.41 µM) |
| COc1ccc(CCNC(=O)C(=O)c2c(C)[nH]c3ccccc23)cc1 | 0.5 (≈ 1.49 µM) |
| O=C(COC(=O)c1ccccc1Nc1ccccc1F)c1ccccc1 | < 0.7 |
| Cc1cc(C)cc(NC(=S)N2CC(C)OC(C)C2)c1 (stereo not given) | 35.1 (≈ 126 µM) |
| O=C(/C=C/c1ccccc1Cl)NC1CCCCC1 | < 0.6 |
| CSc1ncccc1C(=O)Nc1ccc(C)cn1 | > 38.9 |
| CN(C)C(=O)C12CCC(C)(C(=O)C1Br)C2(C)C (stereo not given) | > 45.3 |
| O=C1c2ccccc2NC(c2cccc(O)c2)N1c1ccccc1 (stereo not given) | 2.9 (≈ 9.17 µM) |
| O=C1SCCC1NS(=O)(=O)c1ccc([N+](=O)[O-])cc1 (stereo not given) | 38.3 (≈ 127 µM) |
| CC1(C(=O)Nc2ccccc2)Cc2ccccc2C(=O)O1 (stereo not given) | > 42.2 |
| Cl.OC(COCc1ccc(Cl)cc1)CN1CCCCC1 (stereo not given) | 46.4 |
| Cc1cccc(NC(=S)N2CCN(S(C)(=O)=O)CC2)c1 | > 47 |
| COc1ccccc1CCNC(C)CCc1ccc(O)cc1 (stereo not given) | 33.2 (≈ 111 µM) |
| O=C(Nc1ccccc1)Nc1csc2ccccc12 | 0.6 (≈ 2.24 µM) |
| CCCn1c(=O)[nH]c(=O)c2[nH]cnc21 | > 29.1 |
| COc1ccccc1NS(=O)(=O)c1cc(NC(=O)c2ccc(Cl)nc2)ccc1N1CCCC1 | 2.1 (≈ 4.31 µM) |
| O=C(NCc1ccccc1)c1c[nH]c2ccccc2c1=O | 39.3 (≈ 141 µM) |
| Cn1c(/C=N/O)nc2ccccc21 | > 26.3 |
| S=C(NCc1ccccc1)NCc1cccc(Cl)c1 | 23.2 (≈ 79.8 µM) |
| Cc1ccc(C(=O)CNc2cc(C)ccc2C)cc1 | < 0.5 |
| Cc1cnc(NC(=O)c2ccccn2)s1 | 29.3 (≈ 134 µM) |
| CCN(c1ccccc1)c1nc(=O)c2cccnc2s1 | > 42.5 |
| O=C(CCSCc1ccc(Cl)cc1)NCc1cccs1 | 28.3 (≈ 86.8 µM) |
| Cc1ccccc1C(=O)O/N=C(\N)c1ccc([N+](=O)[O-])cc1 | 6 (≈ 20 µM) |

| SMILES | solubility kinetic [µg/mL] |
| --- | --- |
| C/C(=N\O)c1cc(Cl)ccc1O | > 27.8 |
| N#Cc1cc2c([nH]c1=O)CCCC2 | > 26.1 |
| CC1CCC(NC(=O)Cn2c(=O)oc3ccccc32)CC1 (stereo not given) | 4.9 (≈ 17 µM) |
| COc1cc(N)c(Cl)cc1C(=O)OCC(=O)NCc1cccs1 | 20.6 (≈ 58.1 µM) |
| Clc1ccc(-c2nc3cc(CN4CCCCC4)ccc3o2)cc1 | 23.1 (≈ 70.7 µM) |
| COc1cc2c(C(=O)O)c(C)n(-c3ccccc3)c2c2ccccc12 | 1.3 (≈ 3.92 µM) |
| CC(NC(=O)COC(=O)CN1C(=O)c2ccccc2C1=O)c1ccccc1 (stereo not given) | > 55 |
| COc1ccc(Cl)cc1N1C(=O)c2cccnc2C1=O | > 43.3 |
| O=C(O)CCC(=O)NCC(=O)c1ccc(F)cc1 | > 38 |
| CC(=O)c1ccc(S(=O)(=O)N2CCCc3ccccc32)cc1 | 24.5 (≈ 77.7 µM) |
| O=[N+]([O-])c1ccccc1NCc1ccccc1Cl | < 0.3 |
| Clc1ccc(N2CCN(Cc3ccc(Br)o3)CC2)cc1 | 1.4 (≈ 3.94 µM) |
| Cc1cc(C)nc(SCC(=O)c2ccc(C)c(C)c2)n1 | 19.3 (≈ 67.4 µM) |
| Cc1ccc(S(=O)(=O)N(C)c2ccc(OC(=O)COc3ccccc3)cc2)cc1 | 18.7 (≈ 45.4 µM) |
| COc1ccccc1N1CCN(c2ccc(S(=O)(=O)N3CCN(C)CC3)cn2)CC1 | 26.9 (≈ 62.3 µM) |
| O=C(Nc1ccc(F)cc1)c1cccc(N2C(=O)c3ccccc3C2=O)c1 | 0.7 (≈ 1.94 µM) |
| CSc1ncccc1C(=O)N1CCN(S(=O)(=O)c2ccc3c(c2)OCCO3)CC1 | > 65.3 |
| COc1ccc2c(c1OC)C(=O)N1C2SC[C@H]1C(=O)NC1CC1 (stereo not given in full) | > 50.2 |
| Cc1ccc(C)n1-c1ccc(C(=O)/C=C/N(C)C)cc1 | 25.6 (≈ 95.4 µM) |
| Cc1ccc(/C=N/N2CCOCC2)s1 | > 31.5 |
| COc1ccc2c(c1)-c1nc(/N=C/c3ccc(O)cc3)sc1CC2 | 34 (≈ 101 µM) |
| COc1ccc(NC(=O)CCCc2ccccc2)cc1OC | 29.2 (≈ 97.5 µM) |
| COc1ccc(NC(=O)O/N=C/c2ccccc2Cl)cc1 | 17.7 (≈ 58.1 µM) |
| O=c1c(Cc2ccc(F)cc2)c(O)ccn1Cc1ccco1 | 33 (≈ 110 µM) |

| SMILES | solubility kinetic [µg/mL] |
| --- | --- |
| CC1(C)CC(=O)c2cnc(NC(=O)CSC(=S)N3CCCCC3)nc2C1 | 2.9 (≈ 7.39 µM) |
| COC(=O)c1cc(CSc2ncnc3sccc23)oc1C | 4.3 (≈ 13.4 µM) |
| Cc1cc(C)nc(NC2=NCCN2C(=S)Nc2ccc(C)c(C)c2)n1 | 2.4 (≈ 6.77 µM) |
| Cn1c(N2CCOCC2)c(C=O)c2ccccc21 | > 36.6 |
| COc1ccc2[nH]cc(S(=O)(=O)c3ccc(C)cc3)c2c1 | 30.2 (≈ 100 µM) |
| COc1ccc(C(=O)Nc2ccc(Nc3ccccc3)cc2)cc1Br | < 0.4 |
| CC(=O)c1c(C)n(-c2cccc(Cl)c2)c2ccc(O)cc12 | < 0.6 |
| COCCSc1ccccc1C(=O)N1CCc2ccccc21 | 44.5 (≈ 142 µM) |
| COc1ccccc1NC(=S)NC1CCCC1 | 35.9 (≈ 143 µM) |
| CN1CC(=O)N(CC(=O)Nc2cccc3ccccc23)C1=O | > 44.6 |
| CCOC(=O)c1cn(C2CC2)c2c(F)c(NCCCN(C)C)c(F)cc2c1=O | 53.5 (≈ 136 µM) |
| CCCN(Cc1cc2cc(OC)ccc2[nH]c1=O)C(=O)c1ccco1 | 45.2 (≈ 133 µM) |
| CN(CC(=O)Nc1c(F)cccc1F)Cc1cccs1 | > 44.5 |
| CC1CC(=O)Nc2ccccc2N1S(=O)(=O)c1cccs1 (stereo not given) | 17 (≈ 52.7 µM) |
| CC(CCc1ccccc1)NC(=O)c1ccccc1Cl (stereo not given) | 41.6 (≈ 145 µM) |
| COc1ccc(N/C(=N/c2nc(C)cc(C)n2)NC(=O)c2ccccc2)cc1 | 0.3 (≈ 0.799 µM) |
| COc1ccc(/C=N/N2CCOCC2)cc1Cn1cc([N+](=O)[O-])cn1 | > 51.8 |
| COCC1CCN(Cc2nc(COc3ccccc3)no2)C1 (stereo not given) | 37.2 (≈ 123 µM) |
| COC(=O)c1scc(C)c1S(=O)(=O)Nc1ccc(C)cc1 | 6.5 (≈ 20 µM) |
| O=C(CNC(=O)c1ccc(Cl)cc1Cl)OC1CCCCC1=O (stereo not given) | 39.4 (≈ 114 µM) |
| COc1ccc2cc3cc(C(=O)NCCC(C)C)oc3nc2c1 | < 0.3 |
| C=CCNC(=O)C1CC1(c1ccc(C)cc1)c1ccc(C)cc1 (stereo not given) | 30.6 (≈ 100 µM) |
| CCOc1ccccc1NC(=S)NCCCn1ccnc1 | 42.1 (≈ 138 µM) |
| O=C(Nc1nccs1)c1ccc[nH]c1=O | > 33.2 |

| SMILES | solubility kinetic [µg/mL] |
| --- | --- |
| CCN(c1ccccc1)S(=O)(=O)c1ccc(C(=O)N2CCN(c3ccccc3)CC2)cc1 | 7 (≈ 15.6 µM) |
| CCCCN(CC(=O)NCc1ccc(F)cc1)C(=O)c1ccco1 | 48.5 (≈ 146 µM) |
| Cn1c(=O)c([N+](=O)[O-])c(NCc2ccc3c(c2)OCO3)c2ccccc21 | 0.9 (≈ 2.55 µM) |
| O=C(CN1C(=O)c2ccccc2S1(=O)=O)c1ccc(O)c(O)c1 | > 50 |
| CC(=O)c1ccc(NC(=S)Nc2ccc3[nH]c(=O)[nH]c3c2)cc1 | 5.6 (≈ 17.2 µM) |
| COc1ccc(OC)c(/C=C/C(=O)NC2=NCCS2)c1 | 4 (≈ 13.7 µM) |
| COc1ccc(C(CNS(=O)(=O)c2ccc(NC(C)=O)c(OC)c2)N2CCCCC2)cc1.Cl (stereo not given) | > 74.7 |
| NC(=O)CSc1nc2ccccc2c(=O)n1Cc1ccccc1 | 2.5 (≈ 7.68 µM) |
| CCc1ccc(Nc2ncnc3nc[nH]c23)cc1 | > 35.9 |
| CC1=C(C(=O)N(C)C)C(c2ccc(N3CCOCC3)cc2)NC(=O)N1 (stereo not given) | 49.8 (≈ 145 µM) |
| CN1C2CCC1CC(NS(=O)(=O)c1ccc(C#N)cc1)C2 (stereo not given) | 45.6 (≈ 149 µM) |
| CC(=O)c1ccn(S(=O)(=O)c2ccc(Cl)cc2)c1 | 33.9 (≈ 119 µM) |
| O=S(=O)(NCCc1ccccn1)c1ccc(OC(F)(F)F)cc1 | 51.9 (≈ 150 µM) |
| CS(=O)(=O)N(CC(=O)Nc1ccc(F)cc1F)C1CCCCC1 | > 52 |
| COc1ccc(NS(=O)(=O)c2ccc(C)cc2)c([N+](=O)[O-])c1 | 44.1 (≈ 137 µM) |
| O=C(Nc1ccc2c(c1)OCO2)C1CC(=O)N(c2ccc3c(c2)OCCO3)C1 (stereo not given) | 3.6 (≈ 9.41 µM) |
| Cc1[nH]c2ccccc2c1C(c1ccncc1)N1CCCCC1 (stereo not given) | > 45.8 |
| COc1ccc(C(C)NC(=O)C2CCCC2)cc1OC (stereo not given) | > 41.6 |
| O=C(CCc1c[nH]c2ccccc12)NCCc1ccccc1 | 28.5 (≈ 97.5 µM) |
| Cc1ccc(C)c(C(=O)OCC(=O)N(C)c2ccccc2)c1 | 38 (≈ 128 µM) |
| Cc1cccc(C)c1OCC(=O)Nc1ccccc1N1CCCCC1 | < 0.4 |
| COc1ccc(NC(=O)c2scc(S(=O)(=O)C(C)C)c2N)cc1 | 45.5 (≈ 128 µM) |
| Cn1c(O)c(C=Nc2ccccc2-c2ccccc2)c(=O)n(C)c1=O | < 0.2 |
| Cc1c(C=N)c(O)n(C)c(=O)c1C#N | > 28.7 |

| SMILES | solubility kinetic [µg/mL] |
| --- | --- |
| COc1ccc(NC(=S)Nc2cc(C(F)(F)F)ccc2F)cc1 | 8.7 (≈ 25.3 µM) |
| O=C(NC1CCCCC1)Oc1cc2oc(=O)sc2cc1Br | 10.2 (≈ 27.4 µM) |
| COc1ccc(NC(=O)c2sccc2-n2cccc2)cc1 | 3.4 (≈ 11.4 µM) |
| O=C(NCCNC(=O)c1ccco1)c1ccco1 | 30.5 (≈ 123 µM) |
| O=c1ccc(S(=O)(=O)N2CCCC2)c[nH]1 | > 34.2 |
| CCN1CCN(c2nc3c(C)cccn3c(=O)c2C=C(C#N)C#N)CC1 | 51.1 (≈ 147 µM) |
| Cc1ccc(CNC(=O)C2CCC(=O)N2Cc2ccc(F)cc2)cc1 (stereo not given) | 50.2 (≈ 147 µM) |
| Clc1ccc(CNc2ccccn2)cc1 | 25.8 (≈ 118 µM) |
| OC1CCNC(=S)N1c1ccccc1 (stereo not given) | 30.7 (≈ 147 µM) |
| CCOC(=O)N1CCC(NS(=O)(=O)c2ccc(C)cc2)CC1 | > 49 |
| CN(C)S(=O)(=O)c1cccc(NC(=O)c2ccc(NS(=O)(=O)c3cccs3)cc2)c1 | 59.5 (≈ 128 µM) |
| COC(=O)c1[nH]c2cc(C)ccc2c1NC(=O)CN1CCOCC1 | > 49.7 |
| Cc1nc(-c2ccc3c(c2)CCC(=O)N3)cs1 | 31.7 (≈ 130 µM) |
| O=C(NCc1ccncc1)c1cncc(Br)c1 | > 43.8 |
| CCOC(=O)C(=CNc1ccc(C#N)cc1)C(=O)OCC | > 43.2 |
| CN(Cc1ccc(F)cc1)C(=O)CNC(=O)C1CCCCC1 | > 46 |
| N/C(=N\OC(=O)c1ccc(Br)o1)c1cccnc1 | 39.1 (≈ 126 µM) |
| O=C(NC1=NCCS1)c1ccc(C(F)(F)F)cc1 | 6.1 (≈ 22.2 µM) |
| CC(=O)Nc1ccc(S(=O)(=O)NCC(=O)Nc2ccc3c(c2)OCO3)cc1 | > 58.7 |
| CCOc1ncnc2c1sc1nc(C)cc(C)c12 | < 0.2 |
| Cc1cccc(C(C)C)c1NC(=O)c1cc2ccccc2o1 | 6.1 (≈ 20.8 µM) |
| NC(=O)C1CCN(C(=O)CSc2nc(O)cc(=O)[nH]2)CC1 | 31.1 (≈ 99.6 µM) |
| COc1ccccc1CCC(=O)OCC(=O)NC1CCCCC1 | 43.7 (≈ 137 µM) |
| Cc1cc(Cl)cc(C)c1OCCNCc1ccccc1.O=C(O)C(=O)O | 44.5 |
